Paper PMC4826920 (Evidence-based Complementary and Alternative Medicine : eCAM, 2016)

Key:
[1] = target: T1, recombinant human MAO-B (hMAO-B) (Homo sapiens, UniProt P27338); assay: MAO-Glow luminescence assay, hMAO-B inhibition; assay type: biochemical
T1 construct: purchased Sigma-Aldrich
T1 sequence (P27338 1-520): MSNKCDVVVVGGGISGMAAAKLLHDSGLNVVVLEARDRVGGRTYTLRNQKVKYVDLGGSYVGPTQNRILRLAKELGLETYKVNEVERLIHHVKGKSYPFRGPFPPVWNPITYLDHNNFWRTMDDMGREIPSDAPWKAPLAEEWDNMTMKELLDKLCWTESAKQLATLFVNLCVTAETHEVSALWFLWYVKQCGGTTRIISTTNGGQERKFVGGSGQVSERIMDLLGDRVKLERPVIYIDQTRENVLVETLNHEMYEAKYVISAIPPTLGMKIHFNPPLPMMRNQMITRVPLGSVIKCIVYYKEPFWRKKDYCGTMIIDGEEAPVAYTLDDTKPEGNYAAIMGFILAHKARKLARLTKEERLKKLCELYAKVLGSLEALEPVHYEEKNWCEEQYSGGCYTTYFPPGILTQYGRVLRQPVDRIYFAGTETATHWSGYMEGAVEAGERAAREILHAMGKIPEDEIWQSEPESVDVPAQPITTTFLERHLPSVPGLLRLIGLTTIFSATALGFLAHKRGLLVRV
Procedure: (§1) IC50 values were determined by nonlinear regression best-fit model of normalized response with variable slope. The inhibitor constant (K i) values were obtained from the competitive inhibition model. Lineweaver-Burk plot was obtained from Michaelis-Menten data. Relative selectivity (RS) folds were defined by the ratio of hMAO-A IC50 to hMAO-B IC50. The significance of the difference between two groups was determined using an unpaired t-test, between the control and treatments using one-way ANOVA followed by Dunnett's multiple comparisons tests and between two sets of data using two-way ANOVA followed by Sidak's multiple comparisons test.

[2] = tested on: rat MAO; conditions: cited from earlier work
[3] = target: T2, recombinant human MAO-A (hMAO-A) (Homo sapiens, UniProt P21397); assay: MAO-Glow luminescence assay, hMAO-A inhibition; assay type: biochemical; conditions: up to 250 μM tested
T2 construct: purchased Sigma-Aldrich
T2 sequence (P21397 1-527): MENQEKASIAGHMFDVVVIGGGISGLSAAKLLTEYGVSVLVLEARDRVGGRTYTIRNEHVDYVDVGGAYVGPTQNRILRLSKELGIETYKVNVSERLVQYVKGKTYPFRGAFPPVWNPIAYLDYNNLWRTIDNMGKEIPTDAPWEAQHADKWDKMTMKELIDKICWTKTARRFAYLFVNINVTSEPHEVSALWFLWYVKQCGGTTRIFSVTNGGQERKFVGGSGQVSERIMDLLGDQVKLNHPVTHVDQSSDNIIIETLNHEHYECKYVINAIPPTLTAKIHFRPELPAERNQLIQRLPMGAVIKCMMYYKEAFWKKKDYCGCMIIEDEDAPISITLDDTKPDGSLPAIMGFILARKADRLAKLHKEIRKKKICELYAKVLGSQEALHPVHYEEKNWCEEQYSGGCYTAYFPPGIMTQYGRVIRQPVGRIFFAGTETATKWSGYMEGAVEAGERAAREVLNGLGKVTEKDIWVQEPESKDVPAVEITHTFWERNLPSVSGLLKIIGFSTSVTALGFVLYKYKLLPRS
Procedure: as §1, with “All analyses were performed by GraphPad Prism Software 6.02 (San Diego, CA, USA). IC50 values” for “IC50 values”

[4] = target: T3, hMAO-A (Homo sapiens, UniProt P21397); assay: Recovery by dilution assay, hMAO-A; assay type: biochemical
T3 construct: purchased Sigma-Aldrich
T3 sequence (P21397 1-527): T2 sequence (P21397 1-527)
Procedure: (§2) The microplates were then incubated for 30, 40, 50, and 60 min. RLDR was added, and luminescence was measured as mentioned above.

[5] = target: T4, hMAO-B (Homo sapiens, UniProt P27338); assay: Recovery by dilution assay, hMAO-B; assay type: biochemical
T4 construct: purchased Sigma-Aldrich
T4 sequence (P27338 1-520): T1 sequence (P27338 1-520)
Procedure: as §2

[6] = target: T4, hMAO-B; assay: Michaelis-Menten kinetics (mode of inhibition), hMAO-B; assay type: biochemical
Procedure: (§3) After 1.5 h of incubation, RLDR was added, and the luminescence signal was detected as mentioned in the hMAO-A and hMAO-B assay.
as §1

[7] = tested on: bovine plasma MAO; set-up: method as in PMID 1913999; conditions: cited from earlier work
[8] = target: T3, hMAO-A; assay: Michaelis-Menten kinetics (mode of inhibition), hMAO-A; assay type: biochemical
Procedure: as §3
as §1, with “All analyses were performed by GraphPad Prism Software 6.02 (San Diego, CA, USA). IC50 values” for “IC50 values”

[9] = oral 54 mg/day, postmenopausal women; cited from earlier work
[10] = 40 min preincubation at 10x IC50, 100-fold dilution, vs negative control
[11] = 40 min preincubation at 100x IC50, 100-fold dilution, vs negative control
[12] = up to 60 min at RT, maximum 100x IC50

hMAO-B inhibitory effect ([1]; up to 250 μM tested)	hMAO-A inhibitory effect [3]	hMAO-B potency as % of DEP potency ([1]; from IC50 values)	hMAO-A residual catalytic rate after dilution to 0.1x IC50 [4, 10]	hMAO-A residual catalytic rate after dilution to 1x IC50 [4, 11]	Reversibility of hMAO-A inhibition [4, 12]	hMAO-B residual catalytic rate after dilution to 0.1x IC50 [5, 10]	hMAO-B residual catalytic rate after dilution to 1x IC50 [5, 11]	Reversibility of hMAO-B inhibition [5, 12]	Change in Vmax, hMAO-B ([6]; GST 5, 10, 20 μM, p = 0.44)	Mode of hMAO-B inhibition ([6]; Lineweaver-Burk, LDS substrate)	hMAO-B Ki lower than hMAO-A Ki ([6]; ratio of Ki values)	Change in Vmax, hMAO-A ([8]; GST 5, 10, 20 μM, p = 0.10)	Mode of hMAO-A inhibition ([8]; Lineweaver-Burk, LDS substrate)	SMILES	Rat MAO inhibition [2]	Bovine plasma MAO inhibition [7]	Steady-state level [9]
minor or partial inhibitory effect	minor or partial inhibitory effect	–	–	–	–	–	–	–	–	–	–	–	–	O=c1c(-c2ccc(O)cc2)coc2cc(O)ccc12 [DZ, Daidzein]	no significant rat MAO inhibition	–	–
–	–	1.4%	86.8%	42.3%	reversible inhibitor	86.1%	47.1%	reversible inhibitor	no significant change	competitive	3.0 fold	no significant change	competitive	O=c1c(-c2ccc(O)cc2)coc2cc(O)cc(O)c12 [GST, Genistein]	–	weak bovine plasma MAO inhibition	up to 1.00 μM
